Data: patent US20200023072A1, “ANTIBODY-DRUG CONJUGATES WITH IMMUNE-MEDIATED THERAPY AGENTS” (MEDIMMUNE LIMITED, priority 2016, published 2020)

Test system: CT26 mouse colon cancer cells
Assay: In vivo vaccination/challenge mouse model with payload-treated CT26 cells
Settings: CT26 cells treated 24 hours with tubulysin (1 uM) or PBD (10 nM), implanted in left flank of BALB/c mice; challenge with untreated CT26 cells in opposite flank 1 week later; assessed on day 65
Description: CT26 cells were treated with either […] AZD9185 (tubulysin) or […] SG3199 (PBD) for 24 hours so that the cells were committed to cell death (as assessed by lack of growth in re-plating experiments) but still >95% viable. Five-hundred thousand of these treated cells were inoculated into the left flank of BALB/c mice to test for their ability to vaccinate for subsequent right flank challenge. Controls included cells treated with 75 Gy radiation or taken through 3 freeze-thaw cycles (necrotic). Challenge on the right flank utilized 3×10^6 untreated CT26 cells 7 days later.
In order to test this, tubulysin and PBD were used in a vaccination/challenge mouse model. CT26 mouse colon cancer cells were treated with either tubulysin (1 uM) or PBD (10 nM) for a period of 24 hours (FIG. 1A). At this point in time, the cells were still viable but committed subsequent cell death.
These dying but not yet dead cells were implanted subcutaneously into the left flank of BALB/c mice to test if they could vaccinate against subsequent challenge with a tumor forming dose of untreated CT26 cells in the opposite flank 1 week later. Irradiated cells were included as a positive control and necrotic cells which were taken through a freeze thaw cycle were included as a negative control.

| Structure (SMILES) | mice protected from tumor formation [%] |
| --- | --- |
| COc1cc2c(cc1OCCCCCOc1cc3c(cc1OC)C(=O)N1C=C(C)C[C@H]1C=N3)N=C[C@@H]1CC(C)=CN1C2=O [PBD] | 70 |
| CC[C@H](C)[C@H](NC(=O)[C@H]1CCCCN1C)C(=O)N(COC(=O)CC(C)C)[C@H](C[C@@H](OC(C)=O)c1nc(C(=O)N[C@@H](Cc2ccc(C)cc2)C[C@H](C)C(=O)O)cs1)C(C)C [Tubulysin] | 40 |
